These results are taken from patent publication US20200399222A1, “PICOLINAMIDES AS FUNGICIDES” (Dow AgroSciences LLC, priority 2018, published 2020).

Assay [1] has as its system Puccinia triticina. The assay can be described thus: Wheat brown rust (PUCCRT) disease control on wheat seedlings. It is filed as in vivo. As to conditions: High volume application, 100 ppm. How it is done:
Technical grades of materials were dissolved in acetone, which were then mixed with nine volumes of water containing 110 ppm Triton X-100. The fungicide solutions were applied onto wheat seedlings using an automated booth sprayer to run-off. All sprayed plants were allowed to air dry prior to further handling. All fungicides were evaluated using the aforementioned method for their activity vs. all target diseases, unless stated otherwise. Wheat leaf blotch and brown rust activity were also evaluated using track spray applications, in which case the fungicides were formulated as EC formulations, containing 0.1% Trycol 5941 in the spray solutions. Example B: Evaluation of Fungicidal Activity: Wheat Brown Rust (Puccinia triticina; Synonym: Puccinia recondita f. sp. tritici; Bayer Code PUCCRT) Wheat plants (variety Yuma) were grown from seed in a greenhouse in 50% mineral soil/50% soil-less Metro mix until the first leaf was fully emerged, with 7-10 seedlings per pot. These plants were inoculated with an aqueous spore suspension of Puccinia triticina either prior to or after fungicide treatments. After inoculation the plants were kept in a dark dew room at 22° C. with 100% relative humidity overnight to permit spores to germinate and infect the leaf. The plants were then transferred to a greenhouse set at 24° C. for disease to develop. Fungicide formulation, application and disease assessment followed the procedures as described in the Example A.

In assay [2] the test system is Zymoseptoria tritici. The assay can be described thus: Leaf blotch of wheat (SEPTTR) disease control on wheat seedlings. Format: in vivo. As to conditions: High volume application, 100 ppm. On the procedure: Example A: Evaluation of Fungicidal Activity: Leaf Blotch of Wheat (Zymoseptoria tritici; Bayer Code […]) Technical grades of materials were dissolved in acetone, which were then mixed with nine volumes of water containing 110 ppm Triton X-100. The fungicide solutions were applied onto wheat seedlings using an automated booth sprayer to run-off. All sprayed plants were allowed to air dry prior to further handling. All fungicides were evaluated using the aforementioned method for their activity vs. all target diseases, unless stated otherwise. Wheat leaf blotch and brown rust activity were also evaluated using track spray applications, in which case the fungicides were formulated as EC formulations, containing 0.1% Trycol 5941 in the spray solutions. Wheat plants (variety Yuma) were grown from seed in a greenhouse in 50% mineral soil/50% soil-less Metro mix until the first leaf was fully emerged, with 7-10 seedlings per pot. These plants were inoculated with an aqueous spore suspension of Zymoseptoria tritici either prior to or after fungicide treatments. After inoculation the plants were kept in 100% relative humidity (one day in a dark dew chamber followed by two to three days in a lighted dew chamber at 20° C.) to permit spores to germinate and infect the leaf. The plants were then transferred to a greenhouse set at 20° C. for disease to develop. When disease symptoms were fully expressed on the 1st leaves of untreated plants, infection levels were assessed on a scale of 0 to 100 percent disease severity. Percent disease control was calculated using the ratio of disease severity on treated plants relative to untreated plants.

Where [3] appears, read: 24 h, 1 Day Protectant, read-out: PUCCRT disease control rating, 1DP.
The mark [4] stands for this setting: 72 h, 3 Day Curative, read-out: PUCCRT disease control rating, 3DC.
The mark [5] stands for this setting: 24 h, 1 Day Protectant, read-out: SEPTTR disease control rating, 1DP.
The mark [6] stands for this setting: 72 h, 3 Day Curative, read-out: SEPTTR disease control rating, 3DC.

The structures appear in SMILES notation. Like-named read-outs stand apart in the source and are kept apart here.

Consider `COc1ccnc(C(=O)N[C@H](C(=O)O[C@@H](C)[C@@H](C)c2ccc(F)cc2)C(C)C)c1O` [Example 141], for which the pest or weed control at 100 ppm in assay [1] (setting [3]) is > 80%; in assay [1] (setting [4]) it was < 80%; in assay [2] (setting [5]), > 80%; in assay [2] (setting [6]), < 80%.

For `COc1ccc([C@H](C)[C@H](C)OC(=O)[C@@H](NC(=O)c2nccc(OC)c2O)C(C)C)c(C)c1` [Example 142], the pest or weed control at 100 ppm in assay [1] (setting [3]) was > 80%; in assay [1] (setting [4]), > 80%; in assay [2] (setting [5]), > 80%; in assay [2] (setting [6]) it was < 80%.

`COc1ccnc(C(=O)N[C@H](C(=O)O[C@H](C)[C@H](C)c2ccc(F)cc2C)C(C)C)c1O` [Example 143]: the pest or weed control at 100 ppm in assay [1] (setting [3]) is > 80%; in assay [1] (setting [4]) it was < 0%; in assay [2] (setting [5]), < 80%; in assay [2] (setting [6]), < 80%.

Consider `COc1ccnc(C(=O)N[C@H](C(=O)O[C@H](C)[C@@H](C)c2ccc(F)cc2C)C(C)C)c1O` [Example 144], for which the pest or weed control at 100 ppm in assay [1] (setting [3]) is < 0%; in assay [1] (setting [4]), < 80%; in assay [2] (setting [5]) it was < 80%; in assay [2] (setting [6]), < 80%.

As for `COc1ccnc(C(=O)N[C@H](C(=O)O[C@H](C)[C@@H](C)c2ccccc2C)C(C)C)c1O` [Example 145], the pest or weed control at 100 ppm in assay [1] (setting [3]), in assay [1] (setting [4]), in assay [2] (setting [5]) and in assay [2] (setting [6]) was < 80% each time.

Regarding `COc1ccnc(C(=O)N[C@H](C(=O)O[C@H](C)[C@H](C)c2ccc(F)cc2)C(C)C)c1O` [Example 146], the pest or weed control at 100 ppm in assay [1] (setting [3]) was > 80%; in assay [1] (setting [4]), < 80%; in assay [2] (setting [5]) it was > 80%; in assay [2] (setting [6]), < 80%.

`COc1ccc([C@@H](C)[C@@H](C)OC(=O)[C@@H](NC(=O)c2nccc(OC)c2O)C(C)C)c(C)c1` [Example 147]: the pest or weed control at 100 ppm in assay [1] (setting [3]) was > 80%; in assay [1] (setting [4]), < 80%; in assay [2] (setting [5]), > 80%; in assay [2] (setting [6]), < 80%.

For the compound `COc1ccnc(C(=O)N[C@H](C)C(=O)O[C@@H](C)[C@@H](C)c2ccc(F)cc2C)c1O` [Example 148], the pest or weed control at 100 ppm was > 80% in assay [1] (setting [3]), < 80% in assay [1] (setting [4]), > 80% in assay [2] (setting [5]) and < 80% in assay [2] (setting [6]).

`COc1ccnc(C(=O)N[C@H](C)C(=O)O[C@@H](C)[C@H](C)c2ccc(F)cc2C)c1O` [Example 149]: the pest or weed control at 100 ppm in assay [1] (setting [3]) was < 0%; in assay [1] (setting [4]), < 0%; in assay [2] (setting [5]), < 80%; in assay [2] (setting [6]), < 80%.

As to `COc1ccnc(C(=O)N[C@H](C)C(=O)O[C@@H](C)[C@H](C)c2ccccc2C)c1O` [Example 150], the pest or weed control at 100 ppm is < 0% in assay [1] (setting [3]), < 80% in assay [1] (setting [4]), < 80% in assay [2] (setting [5]) and < 80% in assay [2] (setting [6]).

As for `COc1ccnc(C(=O)N[C@H](C)C(=O)O[C@@H](C)[C@@H](C)c2ccc(F)cc2)c1O` [Example 151], the pest or weed control at 100 ppm in assay [1] (setting [3]) was < 80%; in assay [1] (setting [4]) it was < 0%; in assay [2] (setting [5]), < 80%; in assay [2] (setting [6]), < 80%.

With `COc1ccc([C@H](C)[C@H](C)OC(=O)[C@@H](C)NC(=O)c2nccc(OC)c2O)c(C)c1` [Example 152], the pest or weed control at 100 ppm in assay [1] (setting [3]) is > 80%; in assay [1] (setting [4]) it was < 80%; in assay [2] (setting [5]), < 80%; in assay [2] (setting [6]), < 80%.

For the compound `COc1ccnc(C(=O)N[C@H](C)C(=O)O[C@H](C)[C@H](C)c2ccc(F)cc2C)c1O` [Example 153], the pest or weed control at 100 ppm in assay [1] (setting [3]), in assay [1] (setting [4]), in assay [2] (setting [5]) and in assay [2] (setting [6]) was < 80% throughout.
